Data reported in paper PMC11852064 (Antibiotics, 2025).
Like-named read-outs stand apart in the source and are kept apart here.

Tests used:
[1] = cited from earlier work
[2] = test system: Staphylococcus aureus, Staphylococcus epidermidis, Enterococcus spp. vancomycin-sensitive (VSE), or vancomycin-resistant Van B biofilms; settings: ref 37, 38; cited from earlier work
Description: In some instances, TDM ...

[3] = test system: S. aureus; settings: ref 14; cited from earlier work
[4] = elimination via combination of renal and nonrenal clearance; cited from earlier work
[5] = parameters: method as in earlier work; settings: ref 40, 41; cited from earlier work
[6] = Population pharmacokinetic analysis of multidose DAL in adult patients (NONMEM); type: in vivo, human
Description: This prospective/retrospective study was approved by Liguria Territorial Ethics Committee (DALT DRUM Study, Registration number 82/2023—DB id 13014) and carried out from February 2023 to February 2024 at Ente Ospedaliero Ospedali Galliera, Genoa, Italy. Adult patients referred to the Department of Infectious Diseases with documented or suspected Gram-positive infection who failed primary antimicrobial therapy and were prescribed a multidose DAL regimen as a rescue treatment were deemed eligible for inclusion and after signing the informed consent they were enrolled in the study.
To avoid impacting patient lifestyle and routine clinical practice, a sparse sampling strategy was also adopted for outpatients needing blood tests at the convenience of the prescribing physician.
Pharmacokinetic data were analyzed according to a nonlinear mixed-effects modeling approach using NONMEM v7.5 with Pirana modeling workbench, whilst R, version 4.3.2, was used for data formatting and graphical and statistical summaries. No data transformation was applied to PK concentrations prior to the analysis.
From an initial model (one-compartment, first-order elimination with proportional error model), different possible combinations of structural and stochastic models, as well as the inter-individual variability (IIV) of PK parameters were assessed. The effect of several covariates, previously screened for their influence on the PK parameters of the drug under study, was then included in a stepwise manner with backward elimination in the final model. Continuous covariates (age, weight, height, serum albumin, creatinine, creatine clearance, PCR) were centered on their median value and their effect was evaluated by linear and non-linear relationships. Improvement between models was judged based on a decrease in objective function value (OFV) greater than 3.84 units (p < 0.05) using the FOCE-I estimation method, whilst an increase by more than 6.64 units (p < 0.01) upon removal was adopted during backward exclusion. Additionally, during the initial model-building process outliers were detected and excluded from the analysis based on visual examination of data points identified with conditional weighted residuals (CWRES) > 3. To evaluate the influence of outliers, a sensitivity analysis was conducted in which the updated popPK model was run with and without outliers. If a statistically significant change in OFV or in the estimation of key fixed-effects parameters was observed, outliers were considered influential in the modeling steps and commented out.
The predictive performance of the PK models was assessed by appropriateness of the relative standard error (RSE < 30%), graphically by means of classical key diagnostic plots, prediction-corrected visual predictive check (pcVPC), and by inspecting bootstrap results from 1000 resampled datasets. Finally, eta-shrinkage values were calculated to identify and quantify model overfitting.

[7] = cited from earlier work; remark: listed apart in the source
[8] = bootstrap, 1000 resampled datasets
[9] = final two-compartment popPK model, allometric body weight, 30 adult patients, CLcr > 30 mL/min

Row | Substance | duration of sufficient tissue exposure [1] [weeks] | Activity in vitro against established biofilms [2] | Former EUCAST clinical breakpoint of susceptibility (MIC) [3] [µg/mL] | Renal share of elimination (renal clearance) [4] | EUCAST/USCAST clinical breakpoint MIC [5] [µg/mL] | CL, bootstrap median (CI 5-95%) [6, 8] | Q, bootstrap median (CI 5-95%) [6, 8] | V1, bootstrap median (CI 5-95%) [6, 8] | V2, bootstrap median (CI 5-95%) [6, 8] | Q, inter-compartmental clearance, estimate [6, 9] [L/h] | V1, central volume of distribution, estimate [6, 9] [L] | V2, peripheral volume of distribution, estimate [6, 9] [L] | CL, total body clearance, estimate ([6]; human, in vivo, iv, 1500 mg) [L/h] | Free fraction of DAL in plasma ([7]; as reported on the label) [%] | Binding to plasma proteins ([7]; ref 5) [%] | Binding to plasma proteins ([7]; ref 28) [%]
1 | Dalbavancin [listing 1 of 2 here] | 8 | – | – | – | – | – | – | – | – | – | – | – | – | – | – | –
2 | Dalbavancin [listing 2 of 2 here] | – | potent activity | 0.125 | approximately 45% | 0.25 | 0.0272 (0.0251–0.0294) L/h | 0.0223 (0.0175–0.02936) L/h | 3.6 (3.4–3.8) L | 6.5 (5.6–7.5) L | 0.0225 | 3.6 | 6.4 | 0.0273 | 7 | 93 | 93
